{"source": "the Kinase Knowledgebase extract (Sharma et al. 2016)"}
{"molecular_target": "PIK3CD (Human) (UniProt O00329)", "sequence (O00329 whole entry, looked up)": "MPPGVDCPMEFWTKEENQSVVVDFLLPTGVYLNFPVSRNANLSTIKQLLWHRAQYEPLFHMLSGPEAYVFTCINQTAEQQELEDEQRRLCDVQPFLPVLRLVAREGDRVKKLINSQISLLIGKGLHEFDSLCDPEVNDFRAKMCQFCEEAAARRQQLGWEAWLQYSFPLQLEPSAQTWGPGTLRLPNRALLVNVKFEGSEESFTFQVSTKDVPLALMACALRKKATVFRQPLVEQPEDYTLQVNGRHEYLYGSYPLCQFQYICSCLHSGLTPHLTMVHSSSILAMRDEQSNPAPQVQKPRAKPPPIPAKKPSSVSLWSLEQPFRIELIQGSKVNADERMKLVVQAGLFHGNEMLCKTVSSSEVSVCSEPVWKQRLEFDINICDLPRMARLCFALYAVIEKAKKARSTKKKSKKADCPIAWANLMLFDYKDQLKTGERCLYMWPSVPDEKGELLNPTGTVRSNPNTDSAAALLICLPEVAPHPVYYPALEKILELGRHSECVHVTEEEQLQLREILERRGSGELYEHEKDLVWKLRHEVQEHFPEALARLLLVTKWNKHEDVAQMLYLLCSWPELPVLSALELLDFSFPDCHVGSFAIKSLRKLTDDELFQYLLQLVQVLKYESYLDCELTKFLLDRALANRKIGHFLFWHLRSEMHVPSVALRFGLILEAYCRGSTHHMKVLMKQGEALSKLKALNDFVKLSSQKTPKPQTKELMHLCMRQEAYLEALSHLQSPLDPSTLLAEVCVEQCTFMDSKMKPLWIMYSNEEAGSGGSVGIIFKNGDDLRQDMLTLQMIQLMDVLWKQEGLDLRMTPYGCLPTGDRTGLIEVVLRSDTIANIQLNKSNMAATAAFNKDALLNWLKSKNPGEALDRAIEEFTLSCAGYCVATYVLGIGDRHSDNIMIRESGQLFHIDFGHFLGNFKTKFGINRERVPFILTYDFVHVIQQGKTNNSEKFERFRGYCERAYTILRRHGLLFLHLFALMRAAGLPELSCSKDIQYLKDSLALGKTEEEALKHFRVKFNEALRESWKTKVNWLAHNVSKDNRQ", "assay": "Enzyme Assay", "units": {"IC50": "nM"}}
{"smiles": "CCOC(=O)N1CC[C@H](Oc2ncnc3c2nc(-c2cnc(C)nc2)n3CC)C1", "IC50": 18}
{"smiles": "CC(=O)Nc1ccc(-c2nc3c(O[C@H]4CCN(C(=O)OC(C)(C)C)C4)ncnc3n2C)cc1", "IC50": 140}
{"smiles": "CCn1ncc(-c2nc3c(OC4CCN(C(=O)C5CCOCC5)CC4)ncnc3n2C)c1C", "IC50": 1100}
{"smiles": "CCn1ncc(-c2nc3c(O[C@H]4CCN(C(=O)c5cc(C)n(C)c5C)C4)ncnc3n2C)c1C", "IC50": 20}
{"smiles": "CCn1ncc(-c2nc3c(O[C@H]4CCN(C(=O)c5nc(C)oc5C)C4)ncnc3n2C)c1C", "IC50": 7.2}
{"smiles": "Cc1n[nH]cc1-c1nc2c(O[C@H]3CCN(C(=O)OC(C)(C)C)C3)ncnc2n1C", "IC50": 13}
{"smiles": "CCn1ncc(-c2nc3c(O[C@H]4CCN(C(=O)c5ccnc(C)c5)C4)ncnc3n2C)c1C", "IC50": 25}
{"smiles": "CCC(=O)N1CCC(Oc2ncnc3c2nc(-c2cnn(CC)c2C)n3C)CC1", "IC50": 800}
{"smiles": "CCn1ncc(-c2nc3c(O[C@H]4CCNC4)ncnc3n2C)c1C", "IC50": 2100}
{"smiles": "CCC(=O)N1CC[C@H](Oc2ncnc3c2nc(-c2cc(O)cc(F)c2)n3C)C1", "IC50": 3.8}
{"smiles": "CCC(=O)N1CC[C@H](Oc2ncnc3c2nc(-c2cnc(OC)c(C(F)(F)F)c2)n3C)C1", "IC50": 7.8}
{"smiles": "CCn1ncc(-c2nc3c(O[C@H]4CCN(C(=O)c5nc6cc(Cl)ccn6n5)C4)ncnc3n2C)c1C", "IC50": 860}
{"smiles": "CCn1c(-c2cnc(C)nc2)nc2c(O[C@H]3CCN(C(=O)C4CCOCC4)C3)ncnc21", "IC50": 8.5}
{"smiles": "CCn1ncc(-c2nc3c(O[C@H]4CCN(C(=O)c5cnn(C(C)C)c5)C4)ncnc3n2C)c1C", "IC50": 30}
{"smiles": "CCn1ncc(-c2nc3c(O[C@H]4CCN(c5nncc6ccccc56)C4)ncnc3n2C)c1C", "IC50": 17}
{"smiles": "CCn1c(-c2cnc(C)nc2)nc2c(OC3(C)CCN(C(=O)C4CC4)C3)ncnc21", "note": "(configuration not stated)", "IC50": 8.7}
{"smiles": "CCn1c(-c2cnc(OC)c(F)c2)nc2c(O[C@H]3CCN(C(=O)c4cncn4C)C3)ncnc21", "IC50": 1.5}
{"smiles": "CCC(=O)N1CC[C@H](Oc2ncnc3c2nc(CC(C)C)n3C)C1", "IC50": 890}
{"smiles": "CCn1ncc(-c2nc3c(O[C@H]4CCN(C(=O)C5CC(=O)N(C(C)C)C5)C4)ncnc3n2C)c1C", "note": "(some centres not stated)", "IC50": 10}
{"smiles": "CCn1ncc(-c2nc3c(O[C@H]4CCN(C(=O)OC(C)(C)C)C4)ncnc3n2C)c1C", "IC50": 4.3}
{"smiles": "CCC(=O)N1CC[C@H](Oc2ncnc3c2nc(-c2cncc(N)c2)n3C)C1", "IC50": 5.7}
{"smiles": "CCn1c(-c2cnc(C)nc2)nc2c(O[C@H]3CCN(c4cc(C)ccn4)C3)ncnc21", "IC50": 4.1}
{"smiles": "CCn1ncc(-c2nc3c(O[C@H]4CCN(c5ncnc6sc(C)cc56)C4)ncnc3n2C)c1C", "IC50": 5.2}
{"smiles": "Cn1c(-c2cncc3ccccc23)nc2c(O[C@H]3CCN(C(=O)OC(C)(C)C)C3)ncnc21", "IC50": 320}
{"smiles": "CCn1ncc(-c2nc3c(O[C@H]4CCN(C(=O)NC(C)(C)CC(C)(C)C)C4)ncnc3n2C)c1C", "IC50": 4.7}
{"smiles": "CCn1ncc(-c2nc3c(O[C@H]4CCN(c5cc(-n6cccn6)ncn5)C4)ncnc3n2C)c1C", "IC50": 216}
{"smiles": "CCn1c(-c2cnc(C)nc2)nc2c(O[C@H]3CCN(C(=O)N4CCC(F)(F)C4)C3)ncnc21", "IC50": 14}
{"smiles": "CCNC(=O)N1CC[C@H](Oc2ncnc3c2nc(-c2cnc(C)nc2)n3CC)C1", "IC50": 19}
{"smiles": "CCC(=O)N1CC[C@H](Oc2ncnc3c2nc(-c2cnc(C(C)(C)C)s2)n3CC)C1", "IC50": 2.2}
{"smiles": "CCC(=O)N1CC[C@H](Oc2ncnc3c2nc(C2CC2)n3C)C1", "IC50": 580}
{"smiles": "CCn1c(-c2cnc(C)nc2)nc2c(O[C@H]3CCN(C(=O)[C@H]4CC5CCN4C5)C3)ncnc21", "note": "(some centres not stated)", "IC50": 88}
{"smiles": "Cn1c(-c2ccc(-n3ccnc3)cc2)nc2c(O[C@H]3CCN(C(=O)OC(C)(C)C)C3)ncnc21", "IC50": 330}
{"smiles": "CCn1c(N(C)CCOC)nc2c(O[C@H]3CCN(C(=O)OC(C)(C)C)C3)ncnc21", "IC50": 920}
{"smiles": "CCn1ncc(-c2nc3c(O[C@H]4CCN(C(=O)c5oc(C)nc5C)C4)ncnc3n2C)c1C", "IC50": 3.7}
{"smiles": "CCn1ncc(-c2nc3c(O[C@H]4CCN(C(=O)c5cnn6ccccc56)C4)ncnc3n2C)c1C", "IC50": 130}
{"smiles": "CCC(=O)N1CC[C@H](Oc2ncnc3c2nc(C2=CCOCC2)n3CC)C1", "IC50": 93}
{"smiles": "CCn1ncc(-c2nc3c(O[C@H]4CCN(C(=O)OC(C)C)C4)ncnc3n2C)c1C", "IC50": 8.1}
